Consider 11 compounds from PubChem BioAssay AID1259407 (Chemical Carcinogenesis Research Information System (CCRIS), 2018).

Activity calls are given as the source filed them. How the calls were made is not given here.

The data set deals with CCRIS mutagenicity, Ames/micronucleus/aberration tests. As to the kind of experiment: CCRIS mutagenicity studies.
Where [1] appears, read: Test System: AMES SALMONELLA TYPHIMURIUM, Strain/Indicator: TA100, Metabolic Activation: NONE, Method: STANDARD PLATE.
Setting [2] is: Test System: AMES SALMONELLA TYPHIMURIUM, Strain/Indicator: TA98, Metabolic Activation: NONE, Method: STANDARD PLATE.
Setting [3] is: Test System: AMES SALMONELLA TYPHIMURIUM, Strain/Indicator: TA98, Metabolic Activation: NONE, Method: PREINCUBATION
[4] abbreviates: Test System: AMES SALMONELLA TYPHIMURIUM, Strain/Indicator: TA100, Metabolic Activation: NONE, Method: PREINCUBATION

Turning to `O=C1NC(=O)C(CCl)=C1Cl`, the mutagenic call under setting [1] was “active; positive”.

As to `Cc1c([N+](=O)[O-])cc(C)c2c1c1ccccc1n2C`, the mutagenic call reads like this: under setting [2], “active; positive”; (Test System: AMES SALMONELLA TYPHIMURIUM, Strain/Indicator: TA98, Metabolic Activation: RAT LIVER S-9, AROCLOR 1254, Method: STANDARD PLATE) “active; positive”; under setting [1], “active; positive”; (Test System: AMES SALMONELLA TYPHIMURIUM, Strain/Indicator: TA100, Metabolic Activation: RAT LIVER S-9, AROCLOR 1254, Method: STANDARD PLATE) “active; positive”.

For the compound `CC(C)C1(C)N=C(c2ncccc2C(=O)O)NC1=O` (stereo not drawn), under “End Point: IN VIVO MICRONUCLEUS, Test System: BONE MARROW POLYCHROMATIC ERYTHROCYTES, Species: MOUSE, Strain/Sex: SWISS/MALE, FEMALE, Route: IP 2X IN AQUEOUS SUSPENSION WITHIN 24 HR”, the mutagenic call is “inactive; negative”.

Turning to `NNc1nncc2ncccc12`, the mutagenic call runs as follows: under setting [3], “active; positive”; (Test System: AMES SALMONELLA TYPHIMURIUM, Strain/Indicator: TA98, Metabolic Activation: RAT, LIVER, S-9, PCB, Method: PREINCUBATION) “active; positive”; under setting [4], “active; positive”; (Test System: AMES SALMONELLA TYPHIMURIUM, Strain/Indicator: TA100, Metabolic Activation: RAT, LIVER, S-9, PCB, Method: PREINCUBATION) “active; positive”.

For the compound `Cn1c([N+](=O)[O-])nc2ccccc21`, under setting [2], the mutagenic call was “active; positive”.

Regarding `CCCCOS(=O)(=O)c1ccccc1`, the mutagenic call runs as follows: (End Point: IN VITRO MICRONUCLEUS, Test System: MOUSE LYMPHOMA L5178Y CELLS, Metabolic Activation: NONE) “inactive; negative”; (End Point: IN VITRO MICRONUCLEUS, Test System: MOUSE LYMPHOMA L5178Y CELLS, Metabolic Activation: RAT, LIVER, S-9) “inactive; negative”; (End Point: In vitro micronucleus, Test System: Chinese Hamster Ovary (CHO-WBL) cells, Metabolic Activation: None) “active; positive (p<0.01)”; under setting [1], “active; positive”; (Test System: AMES SALMONELLA TYPHIMURIUM, Strain/Indicator: TA100, Metabolic Activation: RAT, LIVER, S-9, Method: STANDARD PLATE) “active; positive”.

Turning to `NCCCCCCCCCCCC(=O)O`, the mutagenic call is “inactive; negative” under setting [3]; “inactive; negative” (Test System: AMES SALMONELLA TYPHIMURIUM, Strain/Indicator: TA98, Metabolic Activation: RAT LIVER S-9, PHENOBARBITAL AND BETA-NAPHTHOFLAVONE, Method: PREINCUBATION); “inactive; negative” under setting [4]; “inactive; negative” (Test System: AMES SALMONELLA TYPHIMURIUM, Strain/Indicator: TA100, Metabolic Activation: RAT LIVER S-9, PHENOBARBITAL AND BETA-NAPHTHOFLAVONE, Method: PREINCUBATION); “inactive; negative” (Test System: AMES SALMONELLA TYPHIMURIUM, Strain/Indicator: TA1535, Metabolic Activation: NONE, Method: PREINCUBATION); “inactive; negative” (Test System: AMES SALMONELLA TYPHIMURIUM, Strain/Indicator: TA1535, Metabolic Activation: RAT LIVER S-9, PHENOBARBITAL AND BETA-NAPHTHOFLAVONE, Method: PREINCUBATION). Besides, the mutagenic call is, setting by setting: (Test System: AMES SALMONELLA TYPHIMURIUM, Strain/Indicator: TA1537, Metabolic Activation: NONE, Method: PREINCUBATION) “inactive; negative”; (Test System: AMES SALMONELLA TYPHIMURIUM, Strain/Indicator: TA1537, Metabolic Activation: RAT LIVER S-9, PHENOBARBITAL AND BETA-NAPHTHOFLAVONE, Method: PREINCUBATION) “inactive; negative”; (Test System: E.COLI, Strain/Indicator: WP2UVRA/PKM101, Metabolic Activation: NONE, Method: PREINCUBATION) “inactive; negative”; (Test System: E.COLI, Strain/Indicator: WP2UVRA/PKM101, Metabolic Activation: RAT LIVER S-9, PHENOBARBITAL AND BETA-NAPHTHOFLAVONE, Method: PREINCUBATION) “inactive; negative”.

`c1ccc2c(OC[C@@H]3CO3)cccc2c1`: the mutagenic call under setting [1] is “active; positive”.

As for `CCN(CC)c1ccc(N=Nc2sc(C=O)c(Cl)c2C#N)c(NC(=O)COC)c1`, the mutagenic call (End Point: IN VITRO CHROMOSOMAL ABERRATIONS, Test System: CHL CELLS, Metabolic Activation: RAT, LIVER, S-9, SODIUM PHENOBARBITAL AND 5,6-BENZOFLAVONE) was “inactive; negative; precipitation occurred at all doses”.

On to `O=C(O[C@@H]1Cc2c(O)cc(O)cc2O[C@H]1c1cc(O)c(O)c(O)c1)c1cc(O)c(O)c(O)c1`, for which the mutagenic call is, setting by setting: (Test System: Ames Salmonella typhimurium, Strain/Indicator: TA102, Metabolic Activation: None, Method: Preincubation) “inactive; negative”; (Test System: Ames Salmonella typhimurium, Strain/Indicator: TA102, Metabolic Activation: Rat, Liver, S-9, Aroclor 1254 in 0.154 M KCl, Method: Preincubation) “inactive; negative”.

As to `CCN(CC)C(=S)S`, the mutagenic call is, setting by setting: (End Point: IN VITRO CHROMOSOMAL ABERRATIONS, Test System: CHO CELLS, Metabolic Activation: RAT, LIVER, S-9, AROCLOR 1254) “inactive; negative”; (End Point: IN VITRO CHROMOSOMAL ABERRATIONS, Test System: TK6 HUMAN LYMPHOBLASTS, Metabolic Activation: NONE) “active; positive (weak response)”; (Test System: MOUSE LYMPHOMA, Strain/Indicator: L5178Y (TK+/TK-), Metabolic Activation: NONE, Method: SUSPENSION/PLATE) “active; positive”.
